The source of these data is US11306117B2, “Whitening composition containing novel quercetin-based compound” (AMOREPACIFIC CORPORATION, priority 2017, dated 2022).

One test addresses mushroom tyrosinase. As to the kind of experiment: Inhibition of tyrosinase activity. Type of test: biochemical. The settings on record: L-tyrosine, 37° C., 20 minutes, absorbance 490 nm. The protocol:
The effect of New Materials 31 and 32 on inhibiting tyrosinase activity was evaluated.
Specifically, tyrosinase and tyrosine derived from mushroom were obtained from Sigma Chemical. Together with 150 μl of 0.1 M phosphate buffer (pH 6.5), 8 μl of mushroom tyrosinase (2,100 unit/ml) and 0.05 M concentration of L-tyrosine, arbutin and New Materials 31 and 32 were treated at the concentrations of following Table 3, respectively. The tyrosinase activity was evaluated by performing the enzyme reaction at 37° C. for 20 minutes and then measuring absorbance at 490 nm using a microplate reader (Bio-Rad 3550, Richmond, Calif., U.S.A.).

The subject of the next test is Mel-Ab cell line. As to the kind of experiment: Inhibition of melanogenesis in Mel-Ab cells (method of Dooley). The format is cell-based, C57BL/6. The settings on record: melanin by absorbance at 400 nm after 5 days. The protocol:
The effects of New Materials 31 and 32 on inhibiting melanogenesis were compared with Kojic acids which have been known to have an excellent skin whitening effect, and measured.
Specifically, the degree of melanogenesis in cells was measured by a method of Dooley. As the cell line, Mel-Ab cell line (Falcon, U.S.A.) derived from a skin pigment of C57BL/6 was used. Culturing was made under the condition of 37° C., 5% CO2 of a DMEM medium containing 10% placenta serum, 100 nM 12-O-tetradecanoylphorbol-13-acetate, and 1 nM Cholera Toxin. The test materials were treated in the manner where the cultured Mel-Ab cell was isolated with 0.25% trypsin-EDTA, and inoculated again with the same number (1×10^5 cells/well) in the 24-well plate, and then the medium was replaced with a medium containing the test materials for two days from the second day. As the test materials, 5 ppm, 10 ppm, 25 ppm and 50 ppm of New Materials 31 and 32, 25 ppm, 50 ppm and 100 ppm of Kojic acids and DMSO (control) were used. After 5 days, the test materials were treated with 1N-NaOH to dissolve melanin contained in the cell, and the amount of melanin was measured by measuring absorbance at 400 nm. The concentration (IC50) of the material necessary for reducing melanogenesis of melanocyte by half was calculated, and the results are shown in following Table 4.

With `OC[C@H]1O[C@@H](Oc2ccc(O)cc2)[C@H](O)[C@@H](O)[C@@H]1O` [Arbutin, arbutin, reference compound], at mushroom tyrosinase, the “IC50 inhibiting tyrosinase activity” value was determined as 149 ppm.
`O=c1cc(CO)occ1O` [Kojic acids, reference compound]: the IC50 inhibiting melanogenesis in the test with Mel-Ab cell line amounted to 39.36 ppm.
